How the values were obtained:
[1] = target: T1, recombinant human sEH (Homo sapiens, UniProt P34913); assay: In vitro determination of sEH inhibition activity (fluorescent assay, PHOME substrate); type: biochemical; conditions: mean ± Standard Error, min. three replicates, read-out: IC50 (nM) ± SE, sEH inhibition activity
T1 construct: purchased Cayman Chemical 10011669
T1 sequence (P34913 1-555): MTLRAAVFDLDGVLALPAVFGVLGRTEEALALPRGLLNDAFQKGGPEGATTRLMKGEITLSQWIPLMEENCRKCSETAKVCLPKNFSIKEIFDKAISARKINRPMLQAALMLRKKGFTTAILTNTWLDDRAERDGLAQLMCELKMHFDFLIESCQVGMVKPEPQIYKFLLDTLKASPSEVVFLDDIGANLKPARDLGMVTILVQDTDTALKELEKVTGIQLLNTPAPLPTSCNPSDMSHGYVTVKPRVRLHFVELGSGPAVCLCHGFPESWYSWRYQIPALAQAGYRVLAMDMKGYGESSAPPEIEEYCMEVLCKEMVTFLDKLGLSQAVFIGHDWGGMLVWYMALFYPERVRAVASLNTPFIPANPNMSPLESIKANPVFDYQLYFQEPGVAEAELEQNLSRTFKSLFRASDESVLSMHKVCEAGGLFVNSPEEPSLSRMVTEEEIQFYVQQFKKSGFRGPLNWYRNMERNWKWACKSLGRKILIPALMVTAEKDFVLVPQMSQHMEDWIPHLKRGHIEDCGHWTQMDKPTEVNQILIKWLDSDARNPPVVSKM
Method: 3-(Phenyl-oxiranyl)-acetic acid cyano-(6-methoxy-naphthalen-2-yl)-methyl ester (PHOME; from Cayman Chemical, item number 10009134; CAS 1028430-42-3); cf. N. M. Wolf et al., Anal. Biochem. 2006, vol. 355, pp. 71-80.
Solutions: • Assay buffer: Bis/Tris HCl 25 mM pH 7.0 containing 0.1 mg/mL of bovine serum albumin (BSA). • PHOME at 200 μM in DMSO. • Solution of recombinant human sEH (Cayman Chemical, item number 10011669), diluted with assay buffer. • Inhibitors dissolved in DMSO at appropriated concentrations.
In a black 96-well plate (Greiner Bio-One, item number 655900), fill the background wells with 90 μL and the positive control and inhibitor wells with 85 μL of assay buffer. Add 5 μL of DMSO to background and positive control wells, and then add 5 μL of inhibitor solution in inhibitor wells. Add 5 μL of the solution of hsEH to the positive control and inhibitor wells and mix several time. Prepare a 1/21 dilution of the solution of PHOME with assay buffer according to final volume required, and then add 105 μL of each well. Shake carefully the plate for 10 seconds and incubate for 5 minutes at room temperature. […] Results were obtained by regression analysis from at least three data points in a linear region of the curve. IC50 values are average of minimum three independent replicates.

[2] = Determination of water solubility (nephelometry); type: physicochemical; conditions: aqueous with cosolvent or surfactant or cyclodextrin, kinetic from dmso stock; 5% DMSO: 95% PBS buffer, 37° C., read after 2 and 4 h; read-out: S (solubility)
[3] = Determination of cytotoxicity in THLE-2 cells (ATP viability); type: cell-based; conditions: human; THLE-2 cells, 72 h exposure, 0-100 μM; read-out: LC50 (μM), cytotoxicity
Method: Cytotoxic effects of assayed compounds were tested using the immortalized human liver cell line THLE-2 (ATCC CRL-2706). Cells were cultured in BEGM medium (Clonetics # CC-4175) containing all the supplements kit except additional EGF and G418. Medium was completed by adding 0.7 μg/mL phosphoethanolamine, 0.5 ng/mL epidermal growth factor, antibiotics (penicillin and streptomycin) and 10% fetal bovine serum (FBS).
Cells were plated in 96-well black microplates at 10,000 cells/well density and were incubated at 37° C. (5% CO2, 95% humidity) for 24 h to allow the cells to adhere and form a monolayer. Test compounds were solubilized in 100% DMSO at a concentration curve way and then diluted with cell culture medium containing 10% DMSO. The final concentrations of the test compounds (1% DMSO) ranged from 0-100 μM in a final volume of 200 μL. Microplates were maintained at 37° C. (5% CO2, 95% humidity) during 3 days. Following this 72 h exposure to test compounds, cell viability in each well was determined by measuring the concentration of cellular adenosine triphosphate (ATP) using the ATP1Step Kit as described by the manufacturer (Perkin-Elmer). In a typical procedure, 50 μL of cell reagent is added to all wells of each test plate followed by incubation for 10 min at room temperature on an orbital shaker. ATP concentration was determined by reading chemical luminescence using the Envision plate reader (PerkinElmer). The percentage of viable cells relative to the non-drug treated controls was determined for each well and LC50 values were calculated as concentrations projected to kill 50% of the cells following a 72 h exposure, an average of minimum two independent replicates.

[4] = target: T2, CYP1A2 (Homo sapiens, UniProt P05177); assay: Inhibition of human cytochrome P450 CYP1A2; type: in vitro ADME; conditions: human cytochrome P450 enzyme
T2 sequence (P05177 1-516): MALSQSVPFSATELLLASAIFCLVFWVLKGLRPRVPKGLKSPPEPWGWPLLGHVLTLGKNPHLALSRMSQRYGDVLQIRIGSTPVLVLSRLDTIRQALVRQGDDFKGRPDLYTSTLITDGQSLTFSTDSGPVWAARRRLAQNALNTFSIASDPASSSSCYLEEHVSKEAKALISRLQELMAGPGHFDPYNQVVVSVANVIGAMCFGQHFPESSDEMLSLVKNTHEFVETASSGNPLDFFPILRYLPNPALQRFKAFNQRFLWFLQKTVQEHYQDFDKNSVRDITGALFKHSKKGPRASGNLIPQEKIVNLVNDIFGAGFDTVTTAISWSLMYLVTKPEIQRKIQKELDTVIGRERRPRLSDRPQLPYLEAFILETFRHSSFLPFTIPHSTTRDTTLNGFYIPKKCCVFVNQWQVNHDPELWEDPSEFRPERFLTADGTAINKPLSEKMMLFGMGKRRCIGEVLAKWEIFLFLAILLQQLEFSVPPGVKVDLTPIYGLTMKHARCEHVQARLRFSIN
Excerpt: The epoxidation of arachidonic acid (AA) by selected cytochrome P450 epoxygenases generates epoxyeicosatrienoic acids (EETs). These EETs show anti-inflammatory, antihypertensive, analgesic, angiogenic, and antiatherosclerotic effects in rodents and humans. sEH converts EETs to their corresponding dihydroxyeicosatrienoic acids (DHETs), whereby the biological effects of EETs are diminished, eliminated, or altered. Among the P450 enzymes, it is known that CYP2C19 and CYP1A2 have the highest formation rate of EETs from AA (cf. A. A. El-Sherbeni et al. “Repurposing resveratrol and fluconazole to modulate human cytrochrome P450-mediated arachidonic acid metabolites”, Molecular Pharmaceutics 2016, vol. 13, pp. 1278-1288). For this reason, a highly desirable aspect of any new sEH inhibitor is selectivity in front of CYP2C19 and CYP1A2.

In the case of O=C(N[C@]12CC3C[C@@H](C[C@H](C3)O1)C2)N[C@H]1CC[C@H](Oc2ccc(C(=O)O)cc2)CC1 [Ig, trans-1-(2-oxaadamantan-1-yl)-3-[4-(4-carboxyphenoxy)cyclohexyl]urea], the IC50 [1] is reported as 13.4 ± 4 nM, the solubility [2] is reported as > 100 µM and the CC50 at 72 h [3] is reported as > 100 µM. The inhibition at 1 µM [4] was ≤ 6%.

Reference: patent US20200079786A1, “ANALOGS OF […] AS SOLUBLE EPOXIDE HYDROLASE INHIBITORS” (UNIVERSITAT DE BARCELONA, priority 2015, published 2020)
